Reference: BigSolDB 2.1

C[N+](C)(C)CC(=O)[O-]
Conditions | solubility (mole fraction)
in DMSO, 288.51 K | 0.001
in DMSO, 292.73 K | 0.00116
in DMSO, 298.34 K | 0.00139
in DMSO, 305.16 K | 0.00172
in DMSO, 308.53 K | 0.0019
in DMSO, 313.2 K | 0.00219
in DMSO, 318.16 K | 0.00253
in DMSO, 322.88 K | 0.00291
in DMSO, 327.87 K | 0.00334
in DMSO, 333.58 K | 0.00391
in acetic acid, 292.83 K | 0.23
in acetic acid, 297.84 K | 0.239
in acetic acid, 302.28 K | 0.252
in acetic acid, 308.31 K | 0.268
in acetic acid, 312.79 K | 0.279
in acetic acid, 317.76 K | 0.298
in acetic acid, 322.58 K | 0.306
in acetic acid, 328.87 K | 0.327
in acetic acid, 333.12 K | 0.344
in ethylene glycol, 283.42 K | 0.102
in ethylene glycol, 288.53 K | 0.109
in ethylene glycol, 292.46 K | 0.117
in ethylene glycol, 298.03 K | 0.125
in ethylene glycol, 303.87 K | 0.137
in ethylene glycol, 308.52 K | 0.145
in ethylene glycol, 314.59 K | 0.161
in ethylene glycol, 318.19 K | 0.167
in ethylene glycol, 323.98 K | 0.183
in ethylene glycol, 328.33 K | 0.192
in isopentanol, 286.47 K | 0.000166
in isopentanol, 289.13 K | 0.000185
in isopentanol, 293.93 K | 0.000225
in isopentanol, 298.25 K | 0.000269
in isopentanol, 302.72 K | 0.000316
in isopentanol, 307.37 K | 0.000378
in isopentanol, 314.06 K | 0.000477
in isopentanol, 318.23 K | 0.000556
in isopentanol, 322.6 K | 0.000646
in n-pentanol, 285.88 K | 0.000216
in n-pentanol, 289.5 K | 0.000249
in n-pentanol, 294.44 K | 0.000301
in n-pentanol, 299.59 K | 0.000368
in n-pentanol, 304.38 K | 0.000436
in n-pentanol, 309.45 K | 0.000523
in n-pentanol, 313.8 K | 0.000609
in n-pentanol, 318.18 K | 0.000705
in n-pentanol, 323.02 K | 0.000822
